What follows are compounds tested against T1, HMG-CoA reductase (Rattus norvegicus, UniProt P51639) (assay: intrinsic HMG-CoA reductase inhibition, in vitro protocol of J. Med. Chem. 28, 347-358 (1985)). Settings: IC50 of test compound compared with that of compactin (mevastatin) determined simultaneously; compactin assigned 100.
T1 sequence (P51639 1-887): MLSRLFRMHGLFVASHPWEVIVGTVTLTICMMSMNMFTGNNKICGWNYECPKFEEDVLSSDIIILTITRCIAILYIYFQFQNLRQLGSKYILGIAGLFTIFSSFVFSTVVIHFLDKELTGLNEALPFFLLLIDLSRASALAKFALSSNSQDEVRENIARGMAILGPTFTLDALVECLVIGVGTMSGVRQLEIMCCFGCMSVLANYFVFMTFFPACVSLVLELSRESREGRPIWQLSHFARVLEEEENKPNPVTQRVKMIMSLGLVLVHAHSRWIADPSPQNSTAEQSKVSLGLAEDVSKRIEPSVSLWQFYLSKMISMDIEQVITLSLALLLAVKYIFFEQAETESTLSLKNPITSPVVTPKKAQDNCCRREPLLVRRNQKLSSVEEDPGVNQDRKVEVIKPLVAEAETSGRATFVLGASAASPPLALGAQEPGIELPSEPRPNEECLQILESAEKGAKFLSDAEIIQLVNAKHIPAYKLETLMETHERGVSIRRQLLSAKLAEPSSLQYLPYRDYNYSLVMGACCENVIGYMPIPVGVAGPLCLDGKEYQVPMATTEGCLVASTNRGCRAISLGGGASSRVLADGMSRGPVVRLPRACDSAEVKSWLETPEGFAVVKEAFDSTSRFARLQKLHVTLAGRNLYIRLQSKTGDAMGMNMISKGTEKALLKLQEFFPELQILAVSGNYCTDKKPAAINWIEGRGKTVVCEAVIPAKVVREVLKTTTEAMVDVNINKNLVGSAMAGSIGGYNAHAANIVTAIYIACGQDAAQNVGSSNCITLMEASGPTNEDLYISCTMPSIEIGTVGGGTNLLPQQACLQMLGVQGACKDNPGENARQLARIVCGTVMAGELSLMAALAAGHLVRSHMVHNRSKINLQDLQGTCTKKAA
Assay type: biochemical
Procedure: The intrinsic HMG-CoA reductase inhibition activity of the claimed compounds is measured in the in vitro protocol published in J. Med. Chem. 28, p. 347-358 (1985).
For estimation of relative inhibitory potencies, mevastatin (compactin) was assigned a value of 100 and the IC50 value of the test compound was compared with that of compactin determined simultaneously in the published in vitro protocol.

Point of comparison: `CCC(C)(C)C(=O)O[C@H]1C[C@H](CNC(=O)Nc2ccccc2)C=C2C=C[C@H](C)[C@H](CC[C@@H]3C[C@@H](O)CC(=O)O3)[C@H]21` [Example 4, 6(R)-[2-[8(S)-(2,2-dimethylbutyryloxy)-2(S)-methyl-6(S)-phenylureidomethyl-1,2,6,7,8,8a(R)-hexahydronaphthyl-1(S)]ethyl]-4(R)-hydroxy-3,4,5,6-tetrahydro-2H-pyran-2-one], “Relative Potency” value 294. Against it:
- CCC(C)(C)C(=O)O[C@H]1C[C@H](CNC(=O)NCc2ccccc2)C=C2C=C[C@H](C)[C@H](CC[C@@H]3C[C@@H](O)CC(=O)O3)[C@H]21 [Example 5, 6(R)-[2-[8(S)-(2,2-dimethylbutyryloxy)-2(S)-methyl-6(S)-benzylureidomethyl-1,2,6,7,8,8a(R)-hexahydronaphthyl-1(S)]ethyl]-4(R)-hydroxy-3,4,5,6-tetrahydro-2H-pyran-2-one] — higher, 500
- CCC(C)(C)C(=O)O[C@H]1C[C@H](CNCc2ccccc2)C=C2C=C[C@H](C)[C@H](CC[C@@H]3C[C@@H](O)CC(=O)O3)[C@H]21 [Example 2, 6(R)-[2-[8(S)-(2,2-dimethylbutyryloxy)-2(S)-methyl-6(S)-benzylaminomethyl-1,2,6,7,8, 8a(R)-hexahydronaphthyl-1(S)]ethyl]-4(R)-hydroxy-3,4,5,6-tetrahydro-2H-pyran-2-one] — lower, 167
- CCC(C)(C)C(=O)O[C@H]1C[C@H](CNC(=O)c2ccccc2)C=C2C=C[C@H](C)[C@H](CC[C@@H]3C[C@@H](O)CC(=O)O3)[C@H]21 [Example 3, 6(R)-[2-[8(S)-(2,2-dimethylbutyryloxy)-2(S)-methyl-6(S)-phenylcarbonylaminomethyl-1,2,6,7,8,8a(R)-hexahydronaphthyl-1(S)]ethyl]-4(R)-hydroxy-3,4,5,6-tetrahydro-2H-pyran-2-one] — higher, 300
- CCC(C)(C)C(=O)O[C@H]1C[C@H](CN)C=C2C=C[C@H](C)[C@H](CC[C@@H](O)C[C@@H](O)CC(=O)O)[C@H]21 [Example 1] — lower, 125
